Values of other authors in patent US12442091B2, “Electrochemical dehydrogenation, epoxidation, substitution, and halogenation of hydrocarbons and hydrocarbon derivatives” (Wisconsin Alumni Research Foundation, priority 2020, dated 2025).
In brackets after ≈: the same amount, converted by molar mass.

Compound | solubility in water [µg/mL]
CC(C)Br [2-bromopropane] | 3200 (≈ 26 mM)
C=CC [propene] | 384 (≈ 9.13 mM)
